What was measured:
[1] = test system: activity of the diazepam in the pentetrazole test; assay: antagonism of diazepam in the pentetrazole test; format: in vivo; conditions: Mus musculus, po; counteracts the diazepam effect in 50% of the animals; diazepam 5 mg/kg i.p. 1 hour before, test compound p.o. 15 minutes before pentetrazole 120 mg/kg i.p.; mice
Experimental: (§1) This property was used to evaluate the test described hereinafter which permits the determination of compounds which are capable of antagonizing the central properties of 1,4-benzodiazepines which have tranquillizing activity.
(§2) The antagonistic activity of the compounds investigated, i.e. their ability to counteract the activity of the diazepam in the pentetrazole test, is determined by counting the mice which suffer convulsive attacks in this test.
In the following Table there are presented the results which have been obtained with representative members of the class of compound defined by formula I in the test previously described. The ED50 is the amount of test compound in mg/kg (p.o.) which in 50% of the animals counteracts the diazepam effect in the above test. Moreover, the Table contains the IC50 value (defined above) for all test compounds listed therein.

[2] = molecular target: central benzodiazepine receptors; assay: inhibition of the binding of tritiated diazepam at the specific benzodiazepine receptors in the cerebral cortex; conditions: 50 percent inhibition of the specific binding of the tritiated diazepam
Experimental: The affinity of compounds of formula I to the central benzodiazepine receptors was determined according to the method described in Life Science 20, 2101-2110 (1977) and Science 198, 849-851 (1977). According to this method, the inhibition of the binding of tritiated diazepam at the specific benzodiazepine receptors in the cerebral cortex by the respective test substances is ascertained. The IC50 ("50% inhibiting concentration") is that concentration of the respective test substance which brings about a 50 percent inhibition of the specific binding of the tritiated diazepam at the specific benzodiazepine receptors in the cerebral cortex.

[3] = test system: convulsive attacks in the pentetrazole test; assay: pentetrazole test (anticonvulsant activity of diazepam); format: in vivo; conditions: diazepam 5 mg/kg i.p. (supramaximal dosage), more than 900 mice
Experimental: as §1, §2

Compound | ED50 [1] [mg/kg] | IC50 [2] [nM] | protection from convulsive attacks [3]
COCc1ncn2c1CN(C)C(=O)c1c(Cl)cccc1-2 [(a) H Cl --CH2 OCH3 H --CH3 O --, 7-chloro-4,5-dihydro-3-(methoxymethyl)-5-methyl-6H-imidazo[1,5-a][1,4]benzodiazepin-6-one] | 1.4 | 30 | 
CN1Cc2c(I)ncn2-c2ccccc2C1=O [(a) H H J H --CH3 O --, 4,5-dihydro-3-iodo-5-methyl-6H-imidazo[1,5-a][1,4]benzodiazepin-6-one] | 2.5 | 23 | 
CN1C(=O)CN=C(c2ccccc2)c2cc(Cl)ccc21 [diazepam] |  |  | protects all experimental animals from convulsive attacks
CN1Cc2c(Cl)ncn2-c2ccccc2C1=O [(a) H H Cl H --CH3 O --, 3-chloro-4,5-dihydro-5-methyl-6H-imidazo[1,5-a][1,4]benzodiazepin-6-one] | 1.7 | 100 | 
CN1Cc2c(Cl)ncn2-c2ccccc2C1=S [(a) H H Cl H --CH3 S --, 3-chloro-4,5-dihydro-5-methyl-6H-imidazo[1,5-a][1,4]benzodiazepine-6-thione] | 10.5 | 250 | 
O=C1c2ccccc2-n2cnc(Br)c2[C@@H]2CCCN12 [(a) H H Br --(CH2)3 -- O (S), (S)-1-bromo-11,12,13,13a-tetrahydro-9H-imidazo[1,5-a]pyrrolo[2,1-c][1,4]benzodiazepin-9-one] | 9.9 | 48 | 
O=C1c2ccccc2-n2cnc(Cl)c2[C@@H]2CCCN12 [(a) H H Cl --(CH2)3 -- O (S), (S)-1-chloro-11,12,13,13a-tetrahydro-9H-imidazo[1,5-a]pyrrolo[2,1-c][1,4]benzodiazepin-9-one] | 8 | 120 | 
CN1Cc2c(Br)ncn2-c2ccc(F)cc2C1=O [(a) F H Br H --CH3 O --, 3-bromo-8-fluoro-4,5-dihydro-5-methyl-6H-imidazo[1,5-a][1,4]benzodiazepin-6-one] | 7.1 | 51 | 
CN1Cc2cncn2-c2cccc(Cl)c2C1=O [(a) H Cl H H --CH3 O --, 7-chloro-4,5-dihydro-5-methyl-6H-imidazo[1,5-a][1,4]benzodiazepin-6-one] | 6.2 | 110 | 
O=C1c2c(Cl)cccc2-n2cncc2C2C=CCN12 (racemic) [(a) H Cl H --CH=CH--CH2 -- O (R/S), (R,S)-8-chloro-11,13a-dihydro-9H-imidazo[1,5-a]pyrrolo[2,1-c][1,4]benzodiazepin-9-one] | 10.9 | 240 | 
COCc1ncn2c1CN(C)C(=O)c1ccccc1-2 [(a) H H --CH2 OCH3 H --CH3 O --, 4,5-dihydro-3-(methoxymethyl)-5-methyl-6H-imidazo[1,5-a][1,4]benzodiazepin-6-one] | 8.9 | 380 | 
O=C1c2c(Cl)cccc2-n2cnc(Cl)c2C2C=CCN12 (racemic) [(a) H Cl Cl --CH=CH--CH2 -- O (R/S), (R,S)-1,8-dichloro-11,13a-dihydro-9H-imidazo[1,5-a]pyrrolo[2,1-c][1,4]benzodiazepin-9-one] | 1 | 3.9 | 
CN1Cc2c([N+](=O)[O-])ncn2-c2ccccc2C1=O [(a) H H --NO2 H --CH3 O --, 4,5-dihydro-5-methyl-3-nitro-6H-imidazo[1,5-a][1,4]benzodiazepin-6-one] | 4 | 72 | 
CN1Cc2c(Br)ncn2-c2ccccc2C1=O [(a) H H Br H --CH3 O --, 3-bromo-4,5-dihydro-5-methyl-6H-imidazo[1,5-a][1,4]benzodiazepin-6-one] | 4.5 | 34 | 
CN1Cc2c(Cl)ncn2-c2ccc(F)cc2C1=O [(a) F H Cl H --CH3 O --, 3-chloro-8-fluoro-4,5-dihydro-5-methyl-6H-imidazo[1,5-a][1,4]benzodiazepin-6-one] | 2.3 | 28 | 
O=C1c2sccc2-n2cnc(Cl)c2[C@@H]2CCCN12 [(b) -- -- Cl --(CH2)3 -- O (S), (S)-1-Chloro-10,11,12,12a-tetrahydro-8H-imidazo[5,1-c]pyrrolo[1,2-a]thieno[3,2-e][1,4]diazepin-8-one] | 0.83 | 17 | 
CN1Cc2c(Cl)ncn2-c2cccc(Cl)c2C1=O [(a) H Cl Cl H --CH3 O --, 3,7-dichloro-4,5-dihydro-5-methyl-6H-imidazo[1,5-a][1,4]benzodiazepin-6-one] | 0.9 | 3.6 | 

— patent US4352818A, “Diazepine derivatives and their use” (Hoffmann-La Roche Inc., priority 1981, dated 1982)
